The text below walks through data of patent publication US8835171B2, “Materials and methods related to sodium/potassium adenosine triphosphase and cholesterol” (The University of Toledo, priority 2010, dated 2014).

Experiment [1] deals with T1, purified pig kidney Na/K-ATPase (PKE) (Sus scrofa, UniProt P05024).
T1 construct: Purified Na/K-ATPase membrane samples (PKE) were prepared from pig kidney medulla; from tissue; host or cells: pig kidney outer medulla
The experiment can be described thus: NBD-cholesterol binding assay with purified pig kidney enzyme (PKE). The source says:
As the purified membrane fragments contained large amount of cholesterol, which may already saturated binding sites on the Na/K-ATPase, most of the cholesterol content was extracted by Mβ-CD (FIG. 5B). To study the binding between the Na/K-ATPase and cholesterol, a cholesterol analogue, 25-[N-[(7-nitro-2-1,3-benzoxadiazol-4-yl)methyl]amino]-27-norcholesterol (NBD cholesterol), was used for the binding assay. NBD-cholesterol was used for the study of protein-cholesterol interaction before. Unlike cholesterol, NBD-cholesterol is able to emit fluorescence signals that peak at ˜530 nm when excited at 473 nm because of the replacement of the methyl group at C25 position with an NBD group (FIG. 5C). In the aqueous solution, its fluorescence is largely quenched. However, when it binds to a protein and is exposed to a hydrophobic environment, the fluorescence signals will increase. Moreover, it has much higher critical micelle concentration (˜650 nM) than that of the cholesterol (30 nM) so that higher concentrations of the NBD-cholesterol can be used during the binding assay. […] The Kd value is 100 nM-200 nM.
To further confirm that the results represented lipid-protein interaction instead of lipid-lipid interaction, the inventors measured fluorescence resonance energy transfer (FRET) signals. […]

For experiment [2], the system named is Na/K-ATPase α1. Description: Immunostaining / confocal imaging of Na/K-ATPase α1 distribution in LLC-PK1 cells. The experiment is classed as cell-based, pig.
In experiment [3] the test system is insulin receptor β subunit. Description: Western blot of insulin receptor in LLC-PK1 cells. The experiment is classed as cell-based, pig. The protocol: (§1) Protein concentrations of cell lysates or tissue homogenates were measured by Protein Assay Kit from Bio-Rad (Hercules, Calif.). Equal amounts of protein were loaded onto the gel and separated on 10% SDS-PAGE, transferred to an Optitran membrane, and probed with corresponding antibodies. Protein signals were detected with an ECL kit. The density of the Western bands was quantified by the free software Image J.
Background: In western blotting, separated proteins are transferred to a membrane and probed.

Experiment [4] concerns Na/K-ATPase α1. The experiment can be described thus: Western blot of Na/K-ATPase α1 level in LLC-PK1 cells. The class given is cell-based, pig. As for the experimental part: as §1, with “LLC-PK1 cells were grown in 6 cm culture dish to 100% confluence and serum starved for 24 hours. Cells were then treated by 10 mM Mβ-CD for 1 hour. […] Cell lysates were subject to protein assay and Western blot analysis. Protein concentrations” for “Protein concentrations”

The subject of experiment [5] is LLC-PK1 cells. The note with it: 10 mM Mβ-CD 30-60 minutes at 37°, previous work from the inventors' lab; cited from earlier work.
Experiment [6] relates to LLC-PK1 cells. Description: Filipin staining of cholesterol distribution in LLC-PK1 cells. The experiment is classed as cell-based, pig. Conditions: U18666A 24 h. The protocol:
Cholesterol assay and filipin staining were performed as described in Chen et al., Regulation of intracellular cholesterol distribution by Na/K-ATPase. Journal Biological Chemistry, Volume 284, pages 14881-14890 (2009).

Experiment [7] has as its system LLC-PK1 cells. The experiment can be described thus: Cholesterol assay of LLC-PK1 cell lysates. The class given is cell-based, pig. The note with it: U18666A-treated cells. The protocol: LLC-PK1 cells were grown in 6 cm culture dish to 100% confluence and serum starved for 24 hours. […] […] Cell lysates were subject to protein assay and Western blot analysis. Cholesterol assay and filipin staining were performed as described in Chen et al., Regulation of intracellular cholesterol distribution by Na/K-ATPase. Journal Biological Chemistry, Volume 284, pages 14881-14890 (2009).

The test system of experiment [8] is caveolin-1. The experiment can be described thus: Western blot of caveolin-1 in LLC-PK1 cells. The class given is cell-based, pig. Conditions: U18666A 48 h. As for the experimental part:
as §1

In experiment [9] the test system is wild-type rat α1. Description: α1 and filipin staining in wild-type rat α1-rescued cells (AAC-19). The class given is cell-based. Conditions: AAC-19 cells, different doses of U18666A 24 h. The protocol:
Thus, it was of interest to explore whether the CRAC plays a role in cholesterol depletion-induced α1 endocytosis. Firstly, the inventors treated wild-type rat α1 rescued-cells, AAC-19, with U18666A and stained both α1 and cholesterol. […] Staining of the Na/K-ATPase α1 was performed as previously described. Briefly, cells were serum-starved for 24 hours and treated on coverslips. The cells were then fixed with ice-cold methanol for 30 min and blocked with Signal Enhancer from Invitrogen. Next, cells were incubated with a monoclonal anti-Na/K-ATPase α1 antibody at 4° C. overnight. After three washes with PBS, a secondary Alex 488-conjugated anti-mouse antibody was added and incubated at room temperature for 3 hours. The coverslip was washed, mounted and imaged with a Leica confocal microscope.

The test system of experiment [10] is Na/K-ATPase α1 mRNA. Description: Quantitative RT-PCR of α1 mRNA. The class given is cell-based, pig. Conditions: LLC-PK1 cells, 10 μg/ml U18666A 24 h. As for the experimental part:
The quantitative RT-PCR on mRNA levels of Na/K-ATPase α1 and GAPDH were performed as described in Tian et al., Changes in sodium pump expression dictate the effects of ouabain on cell growth, Journal of Biological Chemistry, 14921-1429 (2009).

For experiment [11], the system named is cell surface Na/K-ATPase. Description: 3H-ouabain binding assay of cell surface Na/K-ATPase. The experiment is classed as cell-based, pig. Conditions: LLC-PK1 cells, U18666A. The protocol:
[3H]Ouabain Binding was conducted as described in Tian et al., Changes in sodium pump expression dictate the effects of ouabain on cell growth, Journal of Biological Chemistry, 14921-1429 (2009).

Experiment [12] has as its system Y55S mutant rat α1. The experiment can be described thus: α1 and filipin staining in Y55S mutant rat α1-rescued cells (PY-17-Y55S). The class given is cell-based. Conditions: PY-17-Y55S cells, different doses of U18666A 24 h. An excerpt:
Next, the inventors mutated the essential Tyr55 in the rat α1 CRAC (corresponds to the Tyr53 in pig α1) to Ser55 by a site-directed mutagenesis method and generated the stable mutant rat α1-rescued cell line (PY-17-Y55S). Once the cell line was established, the inventors did the same experiment as on AAC-19 cells. […] To confirm the findings, the inventors had the CRAC synthesized with a positively charged leader peptide, HIV-TAT, tagged to the N-terminus of CRAC so that the TAT-CRAC peptide was cell permeable. Theoretically, loading of the TAT-CRAC peptide into the cells may interrupt the binding between endogenous α1 and cholesterol by competitive inhibition. […] Taken together, the cholesterol-regulated Na/K-ATPase α1 membrane trafficking is dependent on the cholesterol-α1 interaction.
The rat α1 CRAC mutant (Tyr55 to Ser55) was created by PCR-based site-directed mutagenesis on the pRc/CMV-a1AACm1 plasmid as generated previously. The Y55S mutant rat α1 knock-in cell line was then established using the same protocol described before. The pEYFP-α1 plasmid was generated as described previously. RFP-rab7 plasmid was requested from www.addgene.org. The preparation of plasmid constructs expressing GST fusion proteins were made from pGEX-4T-1 as previously described. GST-NT (Ala1-Ser160) and GST-NT-Y55S expression vectors were constructed based on sequence of pig kidney Na/K-ATPase α1 subunit. […]

For the molecule `CC(C)CCC[C@@H](C)[C@H]1CC[C@H]2[C@@H]3CC=C4C[C@@H](O)CC[C@]4(C)[C@H]3CC[C@]12C` [cholesterol], the “competition of binding between NBD-cholesterol and purified PKE” value in [1] (100 nM PKE, 30 nM NBD-cholesterol, FRET) is “competed the binding”.
On to methyl β-cyclodextrin [Mβ-CD], for which, in experiment [2] (Mβ-CD treated LLC-PK1 cells), the α1 immunostaining signals result is on record as “lower α1 signals from the plasma membrane”. Also, the “expression of insulin receptor” value in [3] (during cholesterol depletion by Mβ-CD and repletion) is recorded as “unchanged”. Moreover, in experiment [4] (10 mM Mβ-CD 1 h, 0 h recovery), the “decrease in α1 level” value is ~40%. Moreover, the “plasma membrane cholesterol pool” value in [5] is “significantly lowered”.
Turning to `CC(CCC[C@@H](C)[C@@H]1CC[C@H]2[C@@H]3CC=C4C[C@@H](O)CC[C@]4(C)[C@H]3CC[C@@]21C)N(C)c1ccc([N+](=O)[O-])c2nonc12` (stereo partly shown) [NBD-cholesterol, 25-[N-[(7-nitro-2-1,3-benzoxadiazol-4-yl)methyl]amino]-27-norcholesterol], in experiment [1] (Trp excited at 295 nm), the “FRET signals at 530 nm on incubation with PKE” value is “dose-dependent saturation curve”.
Turning to `CCN(CC)CCO[C@H]1CC[C@@]2(C)C(=CC[C@@H]3[C@@H]2CC[C@]2(C)C(=O)CC[C@@H]32)C1` [U18666A], in [6], the “distribution of free cholesterol” value was “redistribution of free cholesterol from the plasma membrane to intracellular compartments”. In addition, the total cellular cholesterol entry in [7] is “no significant difference”. Further, the caveolin-1 protein level result in [8] is recorded as “downregulated”. Besides, the “intracellular α1 accumulation, colocalization with RFP-Rab7” value in [2] (LLC-PK1 cells transfected with RFP-rab7, 5 μg/ml U18666A 24 h) is “massive intracellular α1 accumulation, most of which clearly colocalized with the Rab7 signals”. Also, in [2] (LLC-PK1 cells transfected with YFP-α1, 5 μg/ml U18666A 24 h), the “colocalization of internalized YFP-α1 with free cholesterol” value is “most of the internalized α1 colocalized with free cholesterol”. Moreover, the “α1 signals, cellular distribution” value in experiment [2] (LLC-PK1 cells, U18666A 24 h) is recorded as “reduced in the plasma membrane but increased in the intracellular compartments”. In addition, the “endocytosis of α1” value in experiment [9] was “endocytosis of α1 in a dose-dependent manner”; in experiment [12], “no obvious endocytosis”. Also, in experiment [3] (LLC-PK1 cells after U18666A treatment), the insulin receptor content result is “remained undisturbed”. In [4] (U18666A 24 h and 48 h), the “downregulation of α1 expression” value was “both dose and time-dependent”. In addition, in experiment [10], the “α1 mRNA level” value is recorded as “no difference compared to control”. In experiment [11], the “cell surface α1 by 3H-ouabain binding” value is recorded as “downregulation of cell surface α1”.
On to `C[C@@H]1C[C@@H]([C@H](O)CC2CC(=O)NC(=O)C2)C(=O)[C@@H](C)C1` [cycloheximide], for which the “effect on U18666A-induced α1 redistribution to the intracellular compartments” value in experiment [2] (cycloheximide 10 μg/ml 1 h before U18666A 24 h) is reported as “did not prevent”.
